Measurements: US20210169992A1, “COMPOSITIONS AND METHODS FOR INHIBITING THE PRODUCTION OR ACTIVITY OF D-2HYDROXYGLUTARATE IN SUBJECTS AFFLICTED WITH CANCER” (President and Fellows of Harvard College, priority 2019, published 2021)
“Also recorded” adds a separate entry of the source.

Assays:
Format in all cases: cell-based
[1] = system: T cells; test: Metabolite profiling during time course of T cell activation with and without D-2HG; conditions: T cells activated with vs without D-2HG; FIG. 1
Excerpt: Log 2 fold change was normalized to the average levels of control group.

[2] = system: T cells; test: Mitochondrial membrane potential by TMRE staining in T cells; conditions: FIG. 4, FIG. 7
Excerpt: (§1) H2O2 and NAC were used as positive and negative controls, respectively. *P<0.05, **P<0.01, ***P<0.001, ****P<0.0001 (Two-way ANOVA).

[3] = system: T cells; test: Mitochondrial respiration / electron transport chain function in T cells; conditions: D-2HG treated T cells, stress conditions
Excerpt: as §1

[4] = system: GL261 cells; test: Mitochondrial membrane potential by TMRE staining in GL261 cells; conditions: cancer cells (GL261); FIG. 3
Protocol: Mitochondrial membrane potential was measured by TMRE staining in control, D-2HG, and L-2HG treated GL261 cells.

[5] = system: T cells; test: D-2HG uptake in T cells
Excerpt: as §1

[6] = system: T cells; test: Effector function and antigen specific killing assay, OT-1 T cells against B16 OVA+ or OVA− tumor cells
Excerpt: Data were normalized to cell number. […] Data were normalized to cell number.

[7] = system: T cells; test: ROS levels following 24 hour treatment; conditions: FIG. 7
Excerpt: as §1

[8] = system: T cells; test: Apoptosis by Annexin and PI staining; conditions: after 24 hours of treatment; FIG. 6
[9] = system: T cells; test: TCA cycle metabolite levels after 48 hour treatment upon T cell activation; conditions: FIG. 2
Protocol: A 2 day treatment of 1 mM NMN was used as a positive control. *P<0.05, **P<0.01 (Student's t test and two-way ANOVA).

[10] = system: T cells; test: T cell proliferation upon activation by Cell Trace Violet staining; conditions: different concentrations of D-2HG, FIG. 6
[11] = target: T1, D2HGDH (Homo sapiens, UniProt Q8N465); test: Isotope tracing of uniformly carbon labeled D-2HG into the TCA cycle; conditions: FIG. 8
T1 construct: endogenous in cells
T1 sequence (Q8N465 14-521): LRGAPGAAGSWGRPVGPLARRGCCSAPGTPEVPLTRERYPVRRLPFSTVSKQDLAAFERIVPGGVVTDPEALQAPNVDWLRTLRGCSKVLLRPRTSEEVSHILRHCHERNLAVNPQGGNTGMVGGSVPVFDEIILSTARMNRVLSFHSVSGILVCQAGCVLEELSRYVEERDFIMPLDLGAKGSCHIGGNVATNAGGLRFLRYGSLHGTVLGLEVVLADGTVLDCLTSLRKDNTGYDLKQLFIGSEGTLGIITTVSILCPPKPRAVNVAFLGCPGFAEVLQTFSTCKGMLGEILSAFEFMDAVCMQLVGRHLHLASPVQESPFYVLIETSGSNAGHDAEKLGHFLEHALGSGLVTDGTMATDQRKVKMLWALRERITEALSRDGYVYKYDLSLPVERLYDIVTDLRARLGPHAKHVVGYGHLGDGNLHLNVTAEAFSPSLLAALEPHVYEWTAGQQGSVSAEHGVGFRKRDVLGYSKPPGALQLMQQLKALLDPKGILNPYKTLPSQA

SMILES	effect on T cell metabolism upon activation [1]	mitochondrial membrane potential (TMRE) [2]	ETC function [3]	mitochondrial membrane potential (TMRE) [4]	uptake by T cells [5]	expression of effector markers ([6]; D-2HG treated T cells)	antitumor activity / killing by treated T cells ([6]; T cells activated in presence of D-2HG, FIG. 9)	ROS production [7]	apoptosis [8]	TCA cycle metabolite levels [9]	T cell proliferation [10]	metabolism of D-2HG [11]
O=C(O)CC[C@@H](O)C(=O)O [D-2HG, D-2hydroxyglutarate]	causes broad changes in T cell metabolism upon activation	causes mitochondrial hyperpolarization	ETC function is impaired under stress conditions	mild effect on mitochondrial membrane potential	is taken up by T cells	increased expression of effector markers	reduced killing; also recorded: results in the generation of effector T cells with inferior antitumor activity	increased ROS production	promotes apoptosis	causes accumulation of TCA cycle metabolites	slows down proliferation	is metabolized by D2HGDH
N#CC(C#N)=NNc1ccc(OC(F)(F)F)cc1 [FCCP, reference compound]		decouples membrane potential in both control and D-2HG treated conditions										
